From ChEMBL document CHEMBL4321876 (J Med Chem, 2020)
Values belong to the compound of their own block, whether it stands above or below them.

What was measured:
[1] = target: Histone acetyltransferase p300 (Homo sapiens, UniProt Q09472); test: Inhibition of p300 (unknown origin) using histone H3 (1 to 21 residues) as substrate preincubated for 15 mins followed by substrate and [3H]acetyl-CoA addition and measured after 60 mins by scintillation counting analysis
MV4-11 = test: Antiproliferative activity against human MV4-11 cells measured after 3 days by celltiter-glo luminescence assay; assay type: functional, cell-based; conditions: MV4-11, 72 h
[2] = Intrinsic clearance in human liver microsomes assessed per mg protein at 0.1 uM preincubated for 10 mins followed by NADPH addition and measured up to 60 mins by UPLC-MS/MS analysis; assay type: ADME, Microsome; conditions: read-out: CLH
[3] = Intrinsic clearance in mouse liver microsomes assessed per mg protein at 0.1 uM preincubated for 10 mins followed by NADPH addition and measured up to 60 mins by UPLC-MS/MS analysis; assay type: ADME, Microsome; conditions: read-out: CLH
[4] = Intrinsic clearance in rat liver microsomes assessed per mg protein at 0.1 uM preincubated for 10 mins followed by NADPH addition and measured up to 60 mins by UPLC-MS/MS analysis; assay type: ADME, Microsome; conditions: read-out: CLH
[5] = Half life in Sprague-Dawley rat at 3 mg/kg, po by LC-MS/MS analysis; assay type: ADME, organism-based; conditions: in vivo
[6] = Cmax in Sprague-Dawley rat at 3 mg/kg, po by LC-MS/MS analysis; assay type: ADME, organism-based; design: dose 3 mg/kg, route oral; conditions: in vivo
[7] = AUClast in Sprague-Dawley rat at 3 mg/kg, po by LC-MS/MS analysis; assay type: ADME, organism-based; design: dose 3 mg/kg, time 0 - last, route oral; conditions: in vivo
[8] = Tmax in Sprague-Dawley rat at 3 mg/kg, po by LC-MS/MS analysis; assay type: ADME, organism-based; conditions: in vivo
[9] = Oral bioavailability in Sprague-Dawley rat at 3 mg/kg by LC-MS/MS analysis; assay type: ADME, organism-based; conditions: in vivo
[10] = Volume of distribution at steady state in Sprague-Dawley rat at 1 mg/kg, iv by LC-MS/MS analysis; assay type: ADME, organism-based; conditions: in vivo, read-out: Vdss
[11] = AUClast in Sprague-Dawley rat at 1 mg/kg, iv by LC-MS/MS analysis; assay type: ADME, organism-based; design: dose 1 mg/kg, route intravenous, time 0 - last; conditions: in vivo
[12] = Clearance in Sprague-Dawley rat at 1 mg/kg, iv by LC-MS/MS analysis; assay type: ADME, organism-based; conditions: in vivo
[13] = Half life in Sprague-Dawley rat at 1 mg/kg, iv by LC-MS/MS analysis; assay type: ADME, organism-based; conditions: in vivo
[14] = Protein binding in rat plasma; assay type: ADME, cell-free; conditions: read-out: PPB (converted)

Sequence of Histone acetyltransferase p300 (Q09472 whole entry, the tested form may be a part): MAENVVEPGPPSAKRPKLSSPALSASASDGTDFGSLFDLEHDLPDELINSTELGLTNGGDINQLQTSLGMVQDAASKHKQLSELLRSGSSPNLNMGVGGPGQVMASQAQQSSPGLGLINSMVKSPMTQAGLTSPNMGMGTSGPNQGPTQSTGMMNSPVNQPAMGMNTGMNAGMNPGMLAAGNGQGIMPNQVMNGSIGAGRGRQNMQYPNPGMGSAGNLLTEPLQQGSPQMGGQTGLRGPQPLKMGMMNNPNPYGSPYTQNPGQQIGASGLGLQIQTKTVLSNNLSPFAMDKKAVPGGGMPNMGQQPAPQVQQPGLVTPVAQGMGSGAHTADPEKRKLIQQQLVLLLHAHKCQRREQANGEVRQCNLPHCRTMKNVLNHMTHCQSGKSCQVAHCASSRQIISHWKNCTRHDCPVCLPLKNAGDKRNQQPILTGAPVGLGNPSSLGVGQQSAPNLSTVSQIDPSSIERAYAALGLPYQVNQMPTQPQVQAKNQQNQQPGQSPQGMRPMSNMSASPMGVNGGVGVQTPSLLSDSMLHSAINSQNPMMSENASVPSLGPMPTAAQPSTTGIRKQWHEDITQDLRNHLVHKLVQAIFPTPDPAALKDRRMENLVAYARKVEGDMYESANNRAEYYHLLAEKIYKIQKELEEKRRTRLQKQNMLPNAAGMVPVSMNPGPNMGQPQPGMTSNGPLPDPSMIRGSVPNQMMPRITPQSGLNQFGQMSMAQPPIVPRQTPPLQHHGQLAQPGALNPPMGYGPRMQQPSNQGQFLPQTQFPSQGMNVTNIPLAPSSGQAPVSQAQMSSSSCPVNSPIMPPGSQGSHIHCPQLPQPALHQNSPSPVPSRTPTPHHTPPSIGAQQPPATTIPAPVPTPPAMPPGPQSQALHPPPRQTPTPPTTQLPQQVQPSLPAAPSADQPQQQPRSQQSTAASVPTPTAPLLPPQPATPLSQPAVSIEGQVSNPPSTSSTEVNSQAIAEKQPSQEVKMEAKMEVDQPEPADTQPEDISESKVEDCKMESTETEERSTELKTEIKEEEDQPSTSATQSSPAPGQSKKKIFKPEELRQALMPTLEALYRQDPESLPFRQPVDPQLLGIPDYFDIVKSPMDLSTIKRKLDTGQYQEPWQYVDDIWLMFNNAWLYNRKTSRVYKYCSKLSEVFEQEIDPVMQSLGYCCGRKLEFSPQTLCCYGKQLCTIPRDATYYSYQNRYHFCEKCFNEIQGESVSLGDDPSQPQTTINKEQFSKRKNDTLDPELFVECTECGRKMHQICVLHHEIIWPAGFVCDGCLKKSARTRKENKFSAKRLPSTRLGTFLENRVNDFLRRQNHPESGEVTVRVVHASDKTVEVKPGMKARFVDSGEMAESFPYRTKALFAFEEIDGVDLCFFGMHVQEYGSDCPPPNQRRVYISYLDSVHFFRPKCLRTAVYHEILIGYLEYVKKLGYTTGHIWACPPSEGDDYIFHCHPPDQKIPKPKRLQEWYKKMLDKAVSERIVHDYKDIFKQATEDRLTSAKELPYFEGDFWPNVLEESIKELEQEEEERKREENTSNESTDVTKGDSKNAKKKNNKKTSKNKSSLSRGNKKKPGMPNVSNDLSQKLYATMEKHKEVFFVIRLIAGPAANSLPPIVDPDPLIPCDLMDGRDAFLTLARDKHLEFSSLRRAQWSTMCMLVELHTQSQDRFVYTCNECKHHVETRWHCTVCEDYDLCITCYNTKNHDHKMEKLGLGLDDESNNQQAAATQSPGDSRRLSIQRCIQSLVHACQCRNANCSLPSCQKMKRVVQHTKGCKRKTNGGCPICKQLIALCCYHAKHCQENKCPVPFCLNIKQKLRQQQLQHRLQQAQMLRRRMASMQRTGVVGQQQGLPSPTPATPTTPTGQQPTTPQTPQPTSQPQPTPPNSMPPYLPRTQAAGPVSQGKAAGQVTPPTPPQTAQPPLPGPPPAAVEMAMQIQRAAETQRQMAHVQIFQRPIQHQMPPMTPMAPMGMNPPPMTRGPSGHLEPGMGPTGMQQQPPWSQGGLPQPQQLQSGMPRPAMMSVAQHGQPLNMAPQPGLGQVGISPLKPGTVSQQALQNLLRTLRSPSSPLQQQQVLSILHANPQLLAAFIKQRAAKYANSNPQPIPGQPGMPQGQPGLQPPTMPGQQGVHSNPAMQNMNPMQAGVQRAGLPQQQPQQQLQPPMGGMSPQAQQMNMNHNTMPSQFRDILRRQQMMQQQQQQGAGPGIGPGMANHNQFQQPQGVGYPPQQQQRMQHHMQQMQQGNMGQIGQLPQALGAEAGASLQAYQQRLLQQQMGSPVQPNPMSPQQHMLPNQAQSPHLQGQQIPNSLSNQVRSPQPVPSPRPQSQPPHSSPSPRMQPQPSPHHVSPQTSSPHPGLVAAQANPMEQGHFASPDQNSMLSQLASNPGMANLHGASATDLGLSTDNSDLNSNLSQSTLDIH

IC50 [1]: > 1000 nM | IC50 (MV4-11): > 5000 nM
Structure (SMILES): CNC(=O)Nc1ccc2c(c1)CC[C@@]21OC(=O)N(CC(=O)N2Cc3ccccc3CC[C@@H]2C(F)(F)F)C1=O

microsomal CLint at 0.1 µM [2]: 255 µL/min/mg | microsomal CLint at 0.1 µM [3]: 219 µL/min/mg | IC50 (MV4-11): 20.4 nM | microsomal CLint at 0.1 µM [4]: 265 µL/min/mg
Structure (SMILES): CNC(=O)Nc1ccc2c(c1)CC[C@@]21OC(=O)N(CC(=O)N2Cc3ccc(F)cc3CC[C@H]2C)C1=O

IC50 [1]: 4 nM | IC50 (MV4-11): 12 nM
Structure (SMILES): CCC[C@@H]1CCc2ccccc2CN1C(=O)CN1C(=O)O[C@@]2(CCc3cc(NC(=O)NC)ccc32)C1=O

microsomal CLint at 0.1 µM [2]: 112 µL/min/mg | microsomal CLint at 0.1 µM [3]: 150 µL/min/mg | IC50 (MV4-11): 4 nM | microsomal CLint at 0.1 µM [4]: 258 µL/min/mg
Structure (SMILES): CNC(=O)Nc1ccc2c(c1)CC[C@@]21OC(=O)N(CC(=O)N2Cc3ccc(F)cc3CC[C@H]2C2CC2)C1=O

IC50 [1]: > 500 nM | IC50 (MV4-11): > 1000 nM
Structure (SMILES): CNC(=O)Nc1ccc2c(c1)CC[C@@]21OC(=O)N(CC(=O)N2CCCc3ccccc3C2)C1=O

IC50 [1]: 4.3 nM | microsomal CLint at 0.1 µM [2]: 209 µL/min/mg | microsomal CLint at 0.1 µM [3]: 360 µL/min/mg | IC50 (MV4-11): 10.7 nM | microsomal CLint at 0.1 µM [4]: 411 µL/min/mg
Structure (SMILES): CNC(=O)Nc1ccc2c(c1)CC[C@@]21OC(=O)N(CC(=O)N2Cc3ccccc3CC[C@H]2C(C)C)C1=O

bioavailability [9]: 35% | Vd [10]: 4 L/kg | half-life [5]: 87 min | IC50 [1]: 2.4 nM | microsomal CLint at 0.1 µM [2]: 35 µL/min/mg | AUC(0-t) [11]: 0.97 µM·h | fraction unbound [14]: 0.006 | Cmax [6]: 390 nM | clearance [12]: 29.8 mL/min/kg | microsomal CLint at 0.1 µM [3]: 60.9 µL/min/mg | AUC(0-t) [7]: 1.04 µM·h | IC50 (MV4-11): 13.5 nM | microsomal CLint at 0.1 µM [4]: 57.8 µL/min/mg | half-life [13]: 126 min | Tmax [8]: 25.2 min
Structure (SMILES): Cn1cc(-c2ccc3c(c2)CC[C@@]32OC(=O)N(CC(=O)N3Cc4cc(F)ccc4OC[C@H]3C(F)(F)F)C2=O)cn1

half-life [5]: 85.8 min | microsomal CLint at 0.1 µM [2]: 31.1 µL/min/mg | Cmax [6]: 80 nM | microsomal CLint at 0.1 µM [3]: 52.3 µL/min/mg | AUC(0-t) [7]: 0.27 µM·h | IC50 (MV4-11): 24.9 nM | microsomal CLint at 0.1 µM [4]: 47.8 µL/min/mg | Tmax [8]: 60 min
Structure (SMILES): CNC(=O)Nc1ccc2c(c1)CC[C@@]21OC(=O)N(CC(=O)N2Cc3cc(F)ccc3OC[C@H]2C(F)(F)F)C1=O

IC50 [1]: 10 nM | IC50 (MV4-11): 77 nM
Structure (SMILES): CNC(=O)Nc1ccc2c(c1)CC[C@]21OC(=O)N(CC(=O)N2Cc3ccccc3CC[C@H]2C(F)(F)F)C1=O

IC50 [1]: 10 nM | IC50 (MV4-11): 64.3 nM
Structure (SMILES): CNC(=O)Nc1ccc2c(c1)CC[C@@]21OC(=O)N(CC(=O)N2Cc3ccccc3CC[C@H]2C)C1=O

The next lines start with the compound.

Structure (SMILES): Cn1cc(-c2cc3c(cn2)[C@]2(CC3)NC(=O)N(CC(=O)N3Cc4cc(F)ccc4OC[C@H]3C(F)(F)F)C2=O)cn1
IC50 [1]: 30 nM | IC50 (MV4-11): 825 nM

Structure (SMILES): CNC(=O)Nc1ccc2c(c1)CC[C@@]21OC(=O)N(CC(=O)N2Cc3ccccc3CC[C@@H]2C)C1=O
IC50 [1]: > 1000 nM | IC50 (MV4-11): > 5000 nM

Structure (SMILES): CNC(=O)Nc1ccc2c(c1)CC[C@@]21OC(=O)N(CC(=O)N2Cc3ccccc3C[C@H]2C)C1=O
IC50 [1]: > 1000 nM

Structure (SMILES): CNC(=O)Nc1ccc2c(c1)CC[C@]21NC(=O)N(CC(=O)N2Cc3cc(F)ccc3OC[C@H]2C(F)(F)F)C1=O
half-life [5]: 267 min | IC50 [1]: 7.5 nM | microsomal CLint at 0.1 µM [2]: 10.2 µL/min/mg | Cmax [6]: 20 nM | microsomal CLint at 0.1 µM [3]: 16.4 µL/min/mg | AUC(0-t) [7]: 0.054 µM·h | IC50 (MV4-11): 15.8 nM | microsomal CLint at 0.1 µM [4]: 3.1 µL/min/mg | Tmax [8]: 15 min

Structure (SMILES): CNC(=O)Nc1ccc2c(c1)CC[C@@]21NC(=O)N(CC(=O)N2Cc3cc(F)ccc3OC[C@H]2C(F)(F)F)C1=O
IC50 [1]: > 100 nM | IC50 (MV4-11): > 1000 nM

Structure (SMILES): CNC(=O)Nc1ccc2c(c1)CC[C@@]21OC(=O)N(CC(=O)N2Cc3ccccc3CC[C@H]2C2CC2)C1=O
bioavailability [9]: 6% | Vd [10]: 0.88 L/kg | half-life [5]: 100 min | IC50 [1]: 3.7 nM | microsomal CLint at 0.1 µM [2]: 179 µL/min/mg | AUC(0-t) [11]: 1.18 µM·h | Cmax [6]: 140 nM | clearance [12]: 27.9 mL/min/kg | microsomal CLint at 0.1 µM [3]: 197 µL/min/mg | AUC(0-t) [7]: 0.21 µM·h | IC50 (MV4-11): 8.8 nM | microsomal CLint at 0.1 µM [4]: 480 µL/min/mg | half-life [13]: 37.2 min | Tmax [8]: 15 min

Structure (SMILES): Cn1cc(-c2ccc3c(c2)CC[C@]32NC(=O)N(CC(=O)N3Cc4cc(F)ccc4OC[C@H]3C3CC3)C2=O)cn1
bioavailability [9]: 21% | Vd [10]: 1 L/kg | half-life [5]: 59.4 min | IC50 [1]: 1.3 nM | microsomal CLint at 0.1 µM [2]: 33.7 µL/min/mg | AUC(0-t) [11]: 1.53 µM·h | fraction unbound [14]: 0.021 | Cmax [6]: 620 nM | clearance [12]: 20.7 mL/min/kg | microsomal CLint at 0.1 µM [3]: 155 µL/min/mg | AUC(0-t) [7]: 0.97 µM·h | IC50 (MV4-11): 3.5 nM | microsomal CLint at 0.1 µM [4]: 40.8 µL/min/mg | half-life [13]: 41.4 min | Tmax [8]: 30 min

Structure (SMILES): Cn1cc(-c2ccc3c(n2)CC[C@]32NC(=O)N(CC(=O)N3Cc4cc(F)ccc4OC[C@H]3C(F)(F)F)C2=O)cn1
IC50 [1]: 14 nM | IC50 (MV4-11): 206 nM

Structure (SMILES): Cn1cc(-c2cnc3c(c2)CC[C@]32NC(=O)N(CC(=O)N3Cc4cc(F)ccc4OC[C@H]3C(F)(F)F)C2=O)cn1
IC50 [1]: 10 nM | IC50 (MV4-11): 118 nM

Structure (SMILES): CNC(=O)Nc1ccc2c(c1)CC[C@@]21OC(=O)N(CC(=O)N2Cc3ccccc3CC[C@H]2C(F)(F)F)C1=O
bioavailability [9]: 13.5% | Vd [10]: 1.34 L/kg | half-life [5]: 109 min | IC50 [1]: 2.6 nM | microsomal CLint at 0.1 µM [2]: 147 µL/min/mg | AUC(0-t) [11]: 0.89 µM·h | Cmax [6]: 160 nM | clearance [12]: 35.1 mL/min/kg | microsomal CLint at 0.1 µM [3]: 166 µL/min/mg | AUC(0-t) [7]: 0.36 µM·h | IC50 (MV4-11): 8.2 nM | microsomal CLint at 0.1 µM [4]: 134 µL/min/mg | half-life [13]: 40.2 min | Tmax [8]: 30 min

Structure (SMILES): CNC(=O)Nc1ccc2c(c1)CC[C@@]21OC(=O)N(CC(=O)N2Cc3ccccc3OC[C@H]2C)C1=O
microsomal CLint at 0.1 µM [2]: 20.5 µL/min/mg | microsomal CLint at 0.1 µM [3]: 37.3 µL/min/mg | IC50 (MV4-11): 72.8 nM | microsomal CLint at 0.1 µM [4]: 82.5 µL/min/mg

Structure (SMILES): CNC(=O)Nc1ccc2c(c1)CC[C@]21NC(=O)N(CC(=O)N2Cc3cc(F)ccc3OC[C@H]2C2CC2)C1=O
half-life [5]: 59.4 min | IC50 [1]: 4.2 nM | microsomal CLint at 0.1 µM [2]: 9.4 µL/min/mg | Cmax [6]: 7 nM | microsomal CLint at 0.1 µM [3]: 9.6 µL/min/mg | AUC(0-t) [7]: 0.008 µM·h | IC50 (MV4-11): 4.8 nM | microsomal CLint at 0.1 µM [4]: 9.2 µL/min/mg | Tmax [8]: 24.6 min

Structure (SMILES): Cn1cc(-c2ccc3c(c2)CC[C@@]32OC(=O)N(CC(=O)N3Cc4cc(F)ccc4OC[C@H]3C3CC3)C2=O)cn1
half-life [5]: 72.6 min | IC50 [1]: 4 nM | microsomal CLint at 0.1 µM [2]: 81.5 µL/min/mg | fraction unbound [14]: 0.007 | Cmax [6]: 57 nM | microsomal CLint at 0.1 µM [3]: 113 µL/min/mg | AUC(0-t) [7]: 0.09 µM·h | IC50 (MV4-11): 3.7 nM | microsomal CLint at 0.1 µM [4]: 121 µL/min/mg | Tmax [8]: 30 min

Structure (SMILES): CNC(=O)Nc1ccc2c(c1)CC[C@@]21NC(=O)N(CC(=O)N2Cc3cc(F)ccc3OC[C@H]2C2CC2)C1=O
IC50 [1]: 73 nM | IC50 (MV4-11): > 500 nM

Structure (SMILES): CNC(=O)Nc1ccc2c(c1)CC[C@@]21OC(=O)N(CC(=O)N2Cc3ccc(F)cc3CC[C@H]2C(F)(F)F)C1=O
microsomal CLint at 0.1 µM [2]: 161 µL/min/mg | microsomal CLint at 0.1 µM [3]: 106 µL/min/mg | IC50 (MV4-11): 2.9 nM | microsomal CLint at 0.1 µM [4]: 94.4 µL/min/mg

Structure (SMILES): CNC(=O)Nc1ccc2c(c1)CC[C@]21OC(=O)N(CC(=O)N2Cc3ccccc3CC[C@H]2C)C1=O
IC50 [1]: 46 nM | IC50 (MV4-11): 156 nM
